We go through four molecules from patent US8158442B2, “Antagonists of bitter taste receptors and uses thereof” (Deutsches Institut Fuer Ernaehrungsforschung …, priority 2007, dated 2012).

Test [1] deals with T1, TAS2R38 (Homo sapiens, UniProt P59533, A49P/I296V).
T1 construct: expressed in transfected cells; host or cells: HEK-293T cells stably expressing the chimeric G-protein subunit G16gust44
T1 sequence (P59533 1-333 A49P/I296V): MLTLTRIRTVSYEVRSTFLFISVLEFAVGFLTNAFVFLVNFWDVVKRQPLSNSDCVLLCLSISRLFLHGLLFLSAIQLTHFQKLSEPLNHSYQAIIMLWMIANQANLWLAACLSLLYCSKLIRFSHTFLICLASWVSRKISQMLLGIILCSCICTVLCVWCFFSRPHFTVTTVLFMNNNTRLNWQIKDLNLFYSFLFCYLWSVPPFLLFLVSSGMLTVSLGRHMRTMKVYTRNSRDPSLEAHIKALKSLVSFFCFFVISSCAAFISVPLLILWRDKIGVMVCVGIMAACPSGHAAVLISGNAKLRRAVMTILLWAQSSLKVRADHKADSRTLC
In words: Calcium imaging (FLIPR) of TAS2R38-PAV transfected HEK-293T G16gust44 cells, activation by compound alone. The test is classed as cell-based. The text has this: (§1) Human TAS2R38 cDNAs encoding the PAV form of the receptor was fused with a plasma membrane-targeting sequence of the rat somatostatin type 3 receptor at the N terminus of the recombinant polypeptide and a herpes simplex virus glycoprotein D (HSV) epitope at its C terminus (Bufe B., et al. (2002) Nat Genet 32:397-401). The constructs were transiently transfected into human embryonic kidney (HEK)-293T cells that stably express the chimeric G-protein subunit G16gust44 (Ueda T., et al. (2003) J Neurosci 23:7376-7380) using Lipofectamine 2000 (Invitrogen). They were then seeded at a density of ˜20-30% and transfected at ˜60% confluency in 96-well microtiter plate (Greiner) coated with 10 μg/ml Poly-D-lysine (Sigma-Aldrich). Calcium imaging experiments using an automated fluorometric imaging plate reader (FLIPR) (Molecular Devices) have been performed 24-32 h later essentially as described previously (Bufe B., et al. (2005) Curr. Biol. 15, 322-327). Tastants (Sigma-Aldrich) were dissolved and administered in the following solution: 130 mM NaCl, 5 mM KCl, 10 mM HEPES, 2 mM CaCl2, and 10 mM glucose, pH 7.4. Data were averaged over several independent experiments and processed with SigmaPlot (SPSS). For calculation of dose-response curves, the peak fluorescence responses after addition of compounds were corrected for and normalized to background fluorescence (ΔF/F=(F−F0)/F0), and baseline noise was subtracted.
During the structure-function-analysis of TAS2R38 agonists we identified and tested various compounds that contain an N—C═S moiety, which is a hallmark of TAS2R38 agonists. […] Two other compounds, dimethylthiourea and mercaptobenzimidazole that also have an N—C═S moiety (FIG. 1) could activate the receptor only at low to concentrations (EC50 of 0.5 mM for dimethylthiourea and 1.0 μM for mercaptobenzimidazole). Application of dimethylthiourea in concentrations above 3 mM led to a dose dependant reduction of the signal amplitude (FIG. 2).

Test [2] deals with T1, TAS2R38. As to the kind of experiment: Calcium imaging (FLIPR) of TAS2R38 transfected cells, antagonists applied as mixture with TAS2R38 agonists. The format is cell-based. The conditions noted are these: for inhibition of the responses of TAS2R38 agonists: mixture with 0.03 mM PROP, 0.03 mM PTC or 1 mM MET, 20 mM DMTU, 5 mM DETU or 0.1 mM MBI, FIG. 3.
Text: as §1
To test whether dimethylthiourea, diethylthiourea and mercaptobenzimidazole are capable of inhibiting the response of other TAS2R38 agonists we next tested them as mixtures with the structurally divergent TAS2R38 agonists propylthiouracil, phenylthiourea and methimidazole.
To further investigate the mechanism of the inhibition of TAS2R38 we examined the effect of increasing diethylthiourea concentrations on the dose response curves of propylthiouracil and phenylthiourea (FIG. 5). […] Thus, the likeliest explanation for the observed right shift in the EC50 values caused by negative cooperativity of the inhibitor binding site on the agonist binding site of PROP and PTC.

Another test deals with T2, hTAS2R16 (Homo sapiens, UniProt Q9NYV7).
T2 construct: expressed in transfected cells
T2 sequence (Q9NYV7 1-291): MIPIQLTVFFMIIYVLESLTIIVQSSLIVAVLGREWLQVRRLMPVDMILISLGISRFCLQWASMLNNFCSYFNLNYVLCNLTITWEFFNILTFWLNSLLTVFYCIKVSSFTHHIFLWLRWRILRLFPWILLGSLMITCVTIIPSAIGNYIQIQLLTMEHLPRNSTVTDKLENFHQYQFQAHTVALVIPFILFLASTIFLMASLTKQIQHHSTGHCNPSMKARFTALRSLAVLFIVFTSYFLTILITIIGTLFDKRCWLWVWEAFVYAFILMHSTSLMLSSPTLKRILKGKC
As to the kind of experiment: Calcium imaging of hTAS2R16 transfected cells stimulated with salicin, specificity test. The test is classed as cell-based. The conditions noted are these: 10 mM DMTU, 5 mM DETU or 0.1 mM MBI, FIG. 4.
Text: as §1
(§2) In contrast to the observed effects on TAS2R38, the response of cells expressing hTAS2R16 or mTas2r5 to their cognate ligands salicin or cycloheximide was not altered by any of the three TAS2R38 antagonists in concentrations that inhibited response of TAS2R38 (FIG. 4).

In another test the target is T3, mTas2r5 (Mus musculus, UniProt Q9JKT4).
T3 construct: expressed in transfected cells
T3 sequence (Q9JKT4 1-300): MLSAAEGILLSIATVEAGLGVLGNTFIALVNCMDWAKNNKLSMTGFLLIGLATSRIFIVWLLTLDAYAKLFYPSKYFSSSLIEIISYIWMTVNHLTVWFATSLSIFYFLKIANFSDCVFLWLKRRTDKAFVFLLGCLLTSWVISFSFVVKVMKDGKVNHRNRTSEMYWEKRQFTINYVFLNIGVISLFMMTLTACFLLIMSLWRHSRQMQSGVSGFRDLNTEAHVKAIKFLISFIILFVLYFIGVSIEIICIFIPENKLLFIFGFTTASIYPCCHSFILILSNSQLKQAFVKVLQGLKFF
As to the kind of experiment: Calcium imaging of mTas2r5 transfected cells stimulated with cycloheximide, specificity test. The test is classed as cell-based, murine. The settings on record: 10 mM DMTU, 5 mM DETU or 0.1 mM MBI, FIG. 4.
Text: as §1, §2

The mark [3] stands for this setting: TAS2R38-PAV transfected cells, compound alone, FIG. 2, read-out: EC50 (activation of the receptor).

As for `CCNC(=S)NCC` [diethylthiourea, N,N′-diethylthiourea], on TAS2R38 [1] (TAS2R38-PAV transfected cells, compound alone, FIG. 2), the “activation of the receptor” value was “did not activate the receptor at any tested concentration”. Besides, the “effect on signal amplitudes of the agonists” value at TAS2R38 [2] (increasing diethylthiourea concentrations, not abolished by increasing agonist concentrations) is “pronounced reduction of the signal amplitudes”. In addition, the “inhibition of the responses of TAS2R38 agonists” value (shortened to “inhibition”) at TAS2R38 [2] is “inhibited the responses of all tested agonist”. Further, on hTAS2R16, the “effect on response of hTAS2R16 expressing cells to salicin” value (from here on “effect on response … to salicin”) is reported as “not altered”. The “effect on response of mTas2r5 expressing cells to cycloheximide” value (from here on “effect on response … to cycloheximide”) at mTas2r5 is “not altered”.
`CNC(=S)NC` [dimethylthiourea, N,N′-dimethylthiourea]: the “concentrations at which the compound acts as agonist of hTAS2R38” value on TAS2R38 [1] is given as “below 3 mM”. The EC50 at TAS2R38 [1] (setting [3]) was 500 µM. For the same molecule, at TAS2R38 [1] (TAS2R38 expressing cells, compound alone, FIG. 2), the “concentrations leading to a dose dependant reduction of the signal amplitude” value is reported as “above 3 mM”. Besides, the “inhibition” value on TAS2R38 [2] is recorded as “inhibited the responses of all tested agonist”. Also, the “effect on response … to salicin” value at hTAS2R16 is recorded as “not altered”. The “effect on response … to cycloheximide” value at mTas2r5 was “not altered”.
Regarding `Sc1nc2ccccc2[nH]1` [mercaptobenzimidazole, 2-mercaptobenzimidazole], the “concentrations at which the compound acts as agonist of hTAS2R38” value on TAS2R38 [1] is on record as “below 0.01 mM”. The half-maximal effective concentration (EC50) at TAS2R38 [1] (setting [3]) amounted to 1 µM. Besides, on TAS2R38 [1] (compound alone, FIG. 2), the “concentrations that pronouncedly reduced the response of TAS2R38 receptor expressing cells” value is “above 10 μM”. Further, at TAS2R38 [2], the “inhibition” value is “inhibited the responses of all tested agonist”. Also, at hTAS2R16, the “effect on response … to salicin” value was “not altered”. The “effect on response … to cycloheximide” value at mTas2r5 is “not altered”.
In the case of `NC(=S)Nc1ccccc1` [phenylthiourea, phenylthiocarbamide, reference compound], the EC50 on TAS2R38 [1] (EC50 (result obtained for propylthiouracil), alone, TAS2R38 transfected cells, FIG. 5) came out at 1.1 ± 0.8 µM; at TAS2R38 [1] (EC50 of phenylthiourea, alone, TAS2R38 transfected cells, FIG. 5), 1.4 ± 0.9 µM; on TAS2R38 [2] (EC50 (result obtained for propylthiouracil), +0.25 mM diethylthiourea), 3.4 ± 2.5 µM; on TAS2R38 [2] (EC50 (result obtained for propylthiouracil), +0.5 mM diethylthiourea), 6.3 ± 3.9 µM; on TAS2R38 [2] (EC50 of phenylthiourea, +0.25 mM diethylthiourea) it was 2.8 ± 0.8 µM; on TAS2R38 [2] (EC50 of phenylthiourea, +0.5 mM diethylthiourea), 4.8 ± 1.8 µM.
